The values below come from patent US9023809B2, “Phenylalanine dipeptide derivatives, compositions and use thereof” (The Key Laboratory of Chemistry For Natural Products of …, priority 2008, dated 2015).

In one series the test system is HBsAg. As to the kind of experiment: In vitro anti-HBV: inhibition of HBsAg secretion in 2.2.15 cell supernatant (RIA). In kind it is cell-based, hepatitis B virus. Conditions: Hepatitis B virus, 192 h, read-out: Inhibition of HBsAg IC50. As to the method:
Test Principle: • 2.2.15 cells were used as a vector of hepatitis B virus. Samples were assayed for their abilities to inhibit […] to carry out DNA replication and to produce HBsAg and HBeAg.
Test Materials and Method: • a. cell line: 2.2.15 cells; • b. treatment of samples: A sample was dissolved in DMSO in a suitable concentration right before use. The resulting solution was diluted in triple folds with culture media. There are eight dilutions. • c. positive control: Lamivudine (3TC) produced by Glaxo Wellcome; • d. reagents: radioimmunological kits of e antigen and s antigen of hepatitis B virus, α^32PdCTP; • e. test method: 2.2.15 cells were seeded in a 96-well microplate. After 36 hours, samples and positive controls in the above dilutions were added into the wells. Cell control wells were simultaneously set up. Culture media were replaced with fresh culture media containing samples in different dilutions, respectively, after 96 hours of addition of samples and positive controls. At the eighth day of addition of samples and positive controls, cell supernatants and 2.2.15 cells were harvested, respectively. Secretory volumes of HBsAg and HBeAg in the cell supernatants were assayed with the RIA method. The degree of HBV DNA replication in the cells was assayed with dot blot method. IC50 and SI were calculated, respectively.

A further series concerns HBV DNA replication. As to the kind of experiment: In vitro anti-HBV: inhibition of HBV DNA replication in 2.2.15 cells (dot blot). It is filed as cell-based, hepatitis B virus. Conditions: Hepatitis B virus, 192 h, day 8, dot blot. As to the method:
(§1) Cell control wells were simultaneously set up. […] IC50 and SI were calculated, respectively.

For the next series, the system named is 2.2.15 cells. The series can be described thus: Cytotoxicity (TC50, median toxic concentration) in 2.2.15 cells. It is filed as cell-based. On the procedure: as §1
The test system of the next series is DHBV-DNA. As to the kind of experiment: In vivo inhibition of DHBV-DNA in DHBV-infected ducklings. Conditions: 50.0 mg/kg, intraperitoneal daily. The text has this:
Test compounds: the compound prepared in Example 75
Test method: One-day-old ducklings were infected with serum containing DHBV positive virus (about 10^8-9 virions/ml). After a week, blood was collected and tested. The successfully transfected ducklings were randomly divided into three to five groups. Blank group, positive control group and treatment group(s) (one to three groups) were subjected to treatment tests. The treatment groups were divided into high, median and low dose groups. Intraperitoneal injection was carried out daily for ten days. Physiological saline was used to replace drugs in the blank group. Lamivudine was administered in the positive control group. […] Serum was separated and kept at −70° C. for tests. Duck hepatitis B virus surface antigen (DHBsAg) was assayed with DHBsAg dot molecular hybridization (DOT EIA). Duck hepatitis B virus deoxyribonucleic acid (DHBV DNA) contents in serum and duck livers were assayed with dot blot hybridization.

≈ marks a conversion by molar mass, not a printed value. Where two headings read alike, the source gives them in different places. Marks after values point to notes of the source that are not given here. Where a SMILES comes first, the peptide text is derived from it. [ ]: non-standard residue; d: D form. The star is where a group is joined. Phe(4-NO2) = N[C@@H](Cc1ccc([N+](=O)[O-])cc1)C(=O)O; Phe(4-NH2) = Nc1ccc(C[C@H](N)C(=O)O)cc1; 4Abz = Nc1ccc(C(=O)O)cc1; Propionyl = CCC(=O)*; Bz = O=C(c1ccccc1)*

With `O=C(N[C@@H](Cc1ccc(OCO)cc1)C(=O)N[C@H](CO)Cc1ccccc1)c1ccccc1.[Na]` [Example 80, N-[N-benzoyl-O-hydroxymethyl-L-tyrosyl]-L-phenylalaninol sodium salt], the 50% inhibitory concentration (IC50) stood at 150 µg/mL in the series on HBsAg and 27.3 µg/mL with HBV DNA replication. The TC50 with 2.2.15 cells was 388.03 µg/mL.
`CC(=O)Nc1ccc(C(=O)N[C@@H](Cc2ccccc2)C(=O)N[C@H](CO)Cc2ccccc2)cc1` [Example 39, N-[N-(4-acetamido-benzoyl)-L-phenylalanyl]-L-phenylalaninol] displayed a melting point of 193 to 195 °C. Further, the IC50 with HBV DNA replication came out at 0.34 µg/mL (≈ 0.74 µM). The TC50 with 2.2.15 cells was 14.37 µg/mL (≈ 31.3 µM).
For `COC(=O)[C@H](Cc1ccc(OC(C)=O)cc1)NC(=O)[C@H](Cc1ccc(NC(C)=O)cc1)NC(=O)c1ccc(C)cc1` [Example 68, methyl N-[N-(4-methyl-benzoyl)-4-acetamido-L-phenylalanyl]-O-acetyl-L-tyrosinate], in that order: 222 to 223 °C, 13.1 µg/mL (≈ 23.4 µM) and 388.03 µg/mL (≈ 693 µM).
Compound `CC(=O)Nc1ccc(C[C@H](NC(=O)c2ccccc2)C(=O)N[C@@H](Cc2ccccc2)C(=O)O)cc1` [Example 87, N-(N-benzoyl-4-acetamido-L-phenylalanyl)-L-phenylalanine] (Bz-[Phe(4-NH2)](Ac)-Phe-OH) displayed a melting point of 233.5 to 235.5 °C. In the series with HBV DNA replication, this compound registered an IC50 of 1.81 µg/mL (≈ 3.82 µM). For the same compound, the TC50 with 2.2.15 cells came out at 43.11 µg/mL (≈ 91 µM).
Take `Nc1ccn([C@@H]2CS[C@H](CO)O2)c(=O)n1` [Example 3TC, Lamivudine, reference compound]: the “Inhibition Ratio” value with DHBV-DNA (3rd Day of Withdrawal) was 0.3; in the series with DHBV-DNA (5th Day of Test), 53.71^d; in the series with DHBV-DNA (10th Day of Test), 57.22^d. For the same compound, the “OD Value” in the series on DHBV-DNA (3rd Day of Withdrawal) is given as 1.54; with DHBV-DNA (5th Day of Test), 0.73^b; in the series with DHBV-DNA (10th Day of Test), 0.68^b. This compound registered an IC50 with HBV DNA replication of 18.9 µg/mL (≈ 82.4 µM). The compound further yielded a TC50 in the series on 2.2.15 cells of 786.00 µg/mL (≈ 3430 µM).
`O=C(N[C@@H](Cc1ccccc1)C(=O)N[C@H](CO)Cc1ccccc1)c1ccc(CN2CCCC2)cc1` [Example 50, N-{N-[4-(1-pyrrolidyl)methyl-benzoyl]-L-phenylalanyl}-L-phenylalaninol] gave a melting point of 164 to 165 °C. The same compound showed an IC50 in the series with HBV DNA replication of 7.04 µg/mL (≈ 14.5 µM). In the series on 2.2.15 cells, this compound gave a TC50 of 64.15 µg/mL (≈ 132 µM).
Consider `CCCCOc1ccc(C[C@H](NC(=O)[C@H](Cc2ccccc2)NC(=O)c2ccccc2)C(=O)[O-])cc1.[Na+]` [Example 74, N-(N-benzoyl-L-phenylalanyl)-O-n-butyl-L-tyrosine sodium salt], for which the IC50 with HBsAg (2.2.15 cells, day 8, RIA) is 25.2 µg/mL; in the series on HBV DNA replication, 33 µg/mL. In the series on 2.2.15 cells, the TC50 was above 500 µg/mL.
Regarding `CCC(=O)Nc1ccc(C(=O)N[C@@H](Cc2ccccc2)C(=O)N[C@@H](Cc2ccc([N+](=O)[O-])cc2)C(=O)OC)cc1` [Example 38, methyl N-[N-(4-propionamido-benzoyl)-L-phenylalanyl]-4-nitro-L-phenylalaninate] ({Propionyl-4Abz}-Phe-[Phe(4-NO2)]-OMe), the melting point is 221 to 223 °C. Further, in the series with HBV DNA replication, the IC50 amounted to 2.39 µg/mL (≈ 4.37 µM). In the series on 2.2.15 cells, this compound displayed a TC50 of 80.13 µg/mL (≈ 147 µM).
Taken in the same sequence, the figures for `CCCCOc1ccc(C[C@H](NC(=O)[C@H](Cc2ccccc2)NC(=O)c2ccccc2)C(=O)OC)cc1` [Example 72, methyl N-(N-benzoyl-L-phenylalanyl)-O-n-butyl-L-tyrosinate] were 177 to 178 °C, 87.5 µg/mL (≈ 174 µM) and 577.35 µg/mL (≈ 1150 µM).
